From paper PMC5218480 (PLoS ONE, 2017)

System: MV-4-11 cells
Assay: Gene expression microarray analysis (Affymetrix PrimeView) and GSEA
Type: cell-based, human
Set-up: RFU PODN (11730768_x_at) / Fold change /veh PODN (11730768_x_at) / RFU LINC00158 (11744669_a_at) / Fold change /veh LINC00158 (11744669_a_at) / RFU DUSP10 (11751237_a_at) / Fold change /veh DUSP10 (11751237_a_at) / RFU ID3 (11757404_x_at) / Fold change /veh ID3 (11757404_x_at) / RFU PLEKHG5 (11737974_s_at) / Fold change /veh PLEKHG5 (11737974_s_at) / RFU LRRC4B (11730491_at) / Fold change /veh LRRC4B (11730491_at) / RFU GIMAP4 (11747438_a_at) / Fold change /veh GIMAP4 (11747438_a_at) / RFU KRT8 (11758183_x_at) / Fold change /veh KRT8 (11758183_x_at) / RFU CNN1 (11734310_a_at) / Fold change /veh CNN1 (11734310_a_at) / RFU VPS37D (11726825_at) / Fold change /veh VPS37D (11726825_at) / RFU C10orf10 (11716522_x_at) / Fold change /veh C10orf10 (11716522_x_at) / RFU KIR2DL2 /// KIR2DL4 /// KIR2DL5A /// KIR2DL5B /// KIR2DS1 /// KIR2DS2 /// KIR2DS3 /// KIR2DS4 /// KIR3DL3 /// KIR3DL3 /// KIR3DS1 (11738374_at) / Fold change /veh KIR2DL2 /// KIR2DL4 /// KIR2DL5A /// KIR2DL5B /// KIR2DS1 /// KIR2DS2 /// KIR2DS3 /// KIR2DS4 /// KIR3DL3 /// KIR3DL3 /// KIR3DS1 (11738374_at) / RFU C1QL1 (11718748_at) / Fold change /veh C1QL1 (11718748_at) / RFU TMPRSS4 (11747572_a_at) / Fold change /veh TMPRSS4 (11747572_a_at) / RFU HAMP (11756126_x_at) / Fold change /veh HAMP (11756126_x_at) / RFU RNFT2 (11725882_a_at) / Fold change /veh RNFT2 (11725882_a_at) / RFU NR4A2 (11747474_a_at) / Fold change /veh NR4A2 (11747474_a_at) / RFU ABCC12 (11746883_a_at) / Fold change /veh ABCC12 (11746883_a_at) / RFU TMEM136 (11760407_x_at) / Fold change /veh TMEM136 (11760407_x_at) / RFU CLDN22 /// WWC2 (11732394_at) / Fold change /veh CLDN22 /// WWC2 (11732394_at) / RFU HLA-DPB1 (11760878_x_at) / Fold change /veh HLA-DPB1 (11760878_x_at) / RFU SPINT1 (11716480_a_at) / Fold change /veh SPINT1 (11716480_a_at) / RFU GAP43 (11754022_s_at) / Fold change /veh GAP43 (11754022_s_at) / RFU A4GNT (11735810_at) / Fold change /veh A4GNT (11735810_at) / RFU PRB3 (11715151_x_at) / Fold change /veh PRB3 (11715151_x_at) / RFU TUBB4B (11761932_at) / Fold change /veh TUBB4B (11761932_at) / RFU CAPN14 (11732068_a_at) / Fold change /veh CAPN14 (11732068_a_at) / RFU TMCC2 (11721928_a_at) / Fold change /veh TMCC2 (11721928_a_at) / RFU IRGQ (11745062_a_at) / Fold change /veh IRGQ (11745062_a_at) / RFU FAM174B (11720279_a_at) / Fold change /veh FAM174B (11720279_a_at) / RFU TMPRSS4 (11748680_a_at) / Fold change /veh TMPRSS4 (11748680_a_at) / RFU FAM212B (11763350_a_at) / Fold change /veh FAM212B (11763350_a_at) / RFU PLEKHG5 (11743358_a_at) / Fold change /veh PLEKHG5 (11743358_a_at) / RFU ZSCAN30 (11745921_a_at) / Fold change /veh ZSCAN30 (11745921_a_at) / RFU CMKLR1 (11741424_a_at) / Fold change /veh CMKLR1 (11741424_a_at) / RFU LOC101060620 /// MAPK8IP1 (11723275_at) / Fold change /veh LOC101060620 /// MAPK8IP1 (11723275_at) / RFU SPTSSB (11747773_x_at) / Fold change /veh SPTSSB (11747773_x_at) / RFU PRSS12 (11739890_at) / Fold change /veh PRSS12 (11739890_at) / RFU BIN1 (11741810_x_at) / Fold change /veh BIN1 (11741810_x_at) / RFU WNT11 (11732464_a_at) / Fold change /veh WNT11 (11732464_a_at) / RFU C10orf10 (11716521_a_at) / Fold change /veh C10orf10 (11716521_a_at) / RFU C5orf56 (11738089_at) / Fold change /veh C5orf56 (11738089_at) / RFU CYB561 (11721691_x_at) / Fold change /veh CYB561 (11721691_x_at) / RFU ANKRD19P (11752326_a_at) / Fold change /veh ANKRD19P (11752326_a_at) / RFU OR2T12 /// OR2T33 /// OR2T8 (11738714_s_at) / Fold change /veh OR2T12 /// OR2T33 /// OR2T8 (11738714_s_at) / RFU VCAN (11748164_a_at) / Fold change /veh VCAN (11748164_a_at) / RFU JSRP1 (11732532_at) / Fold change /veh JSRP1 (11732532_at) / RFU KRTAP10-11 (11738290_x_at) / Fold change /veh KRTAP10-11 (11738290_x_at) / RFU MYO3A (11730013_a_at) / Fold change /veh MYO3A (11730013_a_at) / RFU EBF3 (11725865_a_at) / Fold change /veh EBF3 (11725865_a_at) / RFU CAMK2N1 (11719241_x_at) / Fold change /veh CAMK2N1 (11719241_x_at) / RFU C5orf56 (11738088_a_at) / Fold change /veh C5orf56 (11738088_a_at) / RFU OLFML3 (11715873_a_at) / Fold change /veh OLFML3 (11715873_a_at) / RFU LOC100653217 /// NTM (11731650_a_at) / Fold change /veh LOC100653217 /// NTM (11731650_a_at) / RFU MAPK11 (11762145_a_at) / Fold change /veh MAPK11 (11762145_a_at) / RFU FIZ1 (11724087_x_at) / Fold change /veh FIZ1 (11724087_x_at) / RFU OASL (11726364_x_at) / Fold change /veh OASL (11726364_x_at) / RFU SOX15 (11748057_x_at) / Fold change /veh SOX15 (11748057_x_at) / RFU CD79A (11719716_a_at) / Fold change /veh CD79A (11719716_a_at) / RFU HIST1H1D (11736915_at) / Fold change /veh HIST1H1D (11736915_at) / RFU CASKIN2 (11723855_a_at) / Fold change /veh CASKIN2 (11723855_a_at) / RFU LOC730098 (11760151_x_at) / Fold change /veh LOC730098 (11760151_x_at) / RFU OR4N2 (11742367_at) / Fold change /veh OR4N2 (11742367_at) / RFU PRRT2 (11749266_a_at) / Fold change /veh PRRT2 (11749266_a_at) / RFU SNX32 (11753110_a_at) / Fold change /veh SNX32 (11753110_a_at) / RFU CDHR5 (11726645_a_at) / Fold change /veh CDHR5 (11726645_a_at) / RFU RCAN1 (11760418_a_at) / Fold change /veh RCAN1 (11760418_a_at) / RFU FAM167A (11723789_a_at) / Fold change /veh FAM167A (11723789_a_at) / RFU FAM26E (11764081_at) / Fold change /veh FAM26E (11764081_at) / RFU ISYNA1 (11749810_s_at) / Fold change /veh ISYNA1 (11749810_s_at) / RFU ACY1 (11761880_at) / Fold change /veh ACY1 (11761880_at) / RFU 11764098_at / Fold change /veh 11764098_at / RFU SAMD14 (11745864_x_at) / Fold change /veh SAMD14 (11745864_x_at) / RFU NPB (11741838_a_at) / Fold change /veh NPB (11741838_a_at) / RFU TMPRSS6 (11731388_a_at) / Fold change /veh TMPRSS6 (11731388_a_at) / RFU KRTAP10-2 (11738614_at) / Fold change /veh KRTAP10-2 (11738614_at) / RFU ARHGAP8 /// PRR5-ARHGAP8 (11727945_x_at) / Fold change /veh ARHGAP8 /// PRR5-ARHGAP8 (11727945_x_at) / RFU KRTAP5-7 /// NADSYN1 (11734609_at) / Fold change /veh KRTAP5-7 /// NADSYN1 (11734609_at) / RFU RASL12 (11751679_a_at) / Fold change /veh RASL12 (11751679_a_at) / RFU CDKN2B (11736163_a_at) / Fold change /veh CDKN2B (11736163_a_at) / RFU PRF1 (11729649_at) / Fold change /veh PRF1 (11729649_at) / RFU, ZNF638 /// ZNF638-IT1 / Fold change vs veh, ZNF638 /// ZNF638-IT1 / RFU, PANK3 / Fold change vs veh, PANK3 / RFU, SH3YL1 / Fold change vs veh, SH3YL1 / RFU, ZEB2 / Fold change vs veh, ZEB2 / RFU, NRIP1 / Fold change vs veh, NRIP1 / RFU, PTTG1IP / Fold change vs veh, PTTG1IP / RFU, CAPN2 / Fold change vs veh, CAPN2 / RFU, MED14 / Fold change vs veh, MED14 / RFU, SNORA58 / Fold change vs veh, SNORA58 / RFU, C1orf63 / Fold change vs veh, C1orf63 / RFU, LRRFIP1 / Fold change vs veh, LRRFIP1 / RFU, NDUFAF7 / Fold change vs veh, NDUFAF7 / RFU, SLC12A2 / Fold change vs veh, SLC12A2 / RFU, IBTK / Fold change vs veh, IBTK / RFU, ESF1 / Fold change vs veh, ESF1 / Fold change vs veh, TMEM50B / RFU, TAOK1 / Fold change vs veh, TAOK1 / RFU, ACBD3 / Fold change vs veh, ACBD3 / RFU, TMA16 / Fold change vs veh, TMA16 / RFU, RWDD3 / Fold change vs veh, RWDD3 / RFU, BCAT1 / Fold change vs veh, BCAT1 / RFU, EDEM3 / Fold change vs veh, EDEM3 / RFU, TMEM33 / Fold change vs veh, TMEM33 / RFU, WDR75 / Fold change vs veh, WDR75 / RFU, AHCTF1 / Fold change vs veh, AHCTF1 / RFU, TFRC / Fold change vs veh, TFRC / RFU, ZDHHC17 / Fold change vs veh, ZDHHC17 / RFU, NOM1 / Fold change vs veh, NOM1 / RFU, ARL8B / Fold change vs veh, ARL8B / RFU, ZBTB11 / Fold change vs veh, ZBTB11 / RFU, TAMM41 / Fold change vs veh, TAMM41 / RFU, KIAA1704 /// LOC100996395 / Fold change vs veh, KIAA1704 /// LOC100996395 / RFU, ING1 / Fold change vs veh, ING1 / RFU, TRMT61B / Fold change vs veh, TRMT61B / RFU, FUBP3 / Fold change vs veh, FUBP3 / RFU, TP53 / Fold change vs veh, TP53 / RFU, TNKS2 / Fold change vs veh, TNKS2 / RFU, ZFP14 / Fold change vs veh, ZFP14 / RFU, ACTR2 / Fold change vs veh, ACTR2 / RFU, PPP3R1 / Fold change vs veh, PPP3R1 / RFU, PIK3R1 / Fold change vs veh, PIK3R1 / RFU, HNRNPA1 / Fold change vs veh, HNRNPA1 / RFU, RNF170 / Fold change vs veh, RNF170 / RFU, ZNF28 / Fold change vs veh, ZNF28 / RFU, RNGTT / Fold change vs veh, RNGTT / RFU, OGT / Fold change vs veh, OGT / RFU, BRD1 / Fold change vs veh, BRD1 / RFU, MARS / Fold change vs veh, MARS / RFU, ZNF655 / Fold change vs veh, ZNF655 / RFU, FAHD1 / Fold change vs veh, FAHD1 / RFU, BDP1 / Fold change vs veh, BDP1 / RFU, LRRCC1 / Fold change vs veh, LRRCC1 / RFU, ARID1A / Fold change vs veh, ARID1A / RFU, ZNF146 / Fold change vs veh, ZNF146 / RFU, ZNF330 / Fold change vs veh, ZNF330 / RFU, GPN3 / Fold change vs veh, GPN3 / RFU, C9orf123 / Fold change vs veh, C9orf123 / RFU, N4BP2L2 / Fold change vs veh, N4BP2L2 / RFU, ARFIP1 / Fold change vs veh, ARFIP1 / RFU, FAM179B / Fold change vs veh, FAM179B / RFU, BCL10 / Fold change vs veh, BCL10 / RFU, UHRF1BP1L / Fold change vs veh, UHRF1BP1L / RFU, BET1 / Fold change vs veh, BET1 / RFU, CNOT2 / Fold change vs veh, CNOT2 / RFU, ZNF268 / Fold change vs veh, ZNF268 / Fold change vs veh, ZNF507 / RFU, DGCR2 / Fold change vs veh, DGCR2 / RFU, WDSUB1 / Fold change vs veh, WDSUB1 / Fold change vs veh, HSP90B1 /// MIR3652 / RFU, ADSS / Fold change vs veh, ADSS / RFU, GK / Fold change vs veh, GK / RFU, ZNF148 / Fold change vs veh, ZNF148 / RFU, TAF9 / Fold change vs veh, TAF9 / RFU, SLC1A5 / Fold change vs veh, SLC1A5 / RFU, SLMO2 / Fold change vs veh, SLMO2 / RFU, ABCC4 / Fold change vs veh, ABCC4 / RFU, LOC101060439 /// RAP1B / Fold change vs veh, LOC101060439 /// RAP1B / RFU, RFX7 / Fold change vs veh, RFX7 / RFU, GTPBP10 / Fold change vs veh, GTPBP10 / RFU, CNEP1R1 / Fold change vs veh, CNEP1R1 / RFU, BIVM-ERCC5 /// ERCC5 / Fold change vs veh, BIVM-ERCC5 /// ERCC5 / RFU, ILF3 / Fold change vs veh, ILF3 / RFU 11762660_at / Fold change /veh 11762660_at / RFU VCAN (11757783_s_at) / Fold change /veh VCAN (11757783_s_at) / RFU DDX43 (11728927_at) / Fold change /veh DDX43 (11728927_at) / RFU KRT8 (11758188_x_at) / Fold change /veh KRT8 (11758188_x_at) / RFU NKD1 (11759106_at) / Fold change /veh NKD1 (11759106_at) / RFU SRD5A1 (11742802_a_at) / Fold change /veh SRD5A1 (11742802_a_at) / RFU TPSAB1 /// TPSB2 (11721975_s_at) / Fold change /veh TPSAB1 /// TPSB2 (11721975_s_at) / RFU GSTM3 (11746129_a_at) / Fold change /veh GSTM3 (11746129_a_at) / RFU IL23R (11737362_x_at) / Fold change /veh IL23R (11737362_x_at) / RFU TMEM51 (11727254_a_at) / Fold change /veh TMEM51 (11727254_a_at) / RFU PIWIL2 (11732686_x_at) / Fold change /veh PIWIL2 (11732686_x_at) / RFU ORM1 (11744905_x_at) / Fold change /veh ORM1 (11744905_x_at) / RFU CCDC152 (11743942_at) / Fold change /veh CCDC152 (11743942_at) / RFU ECM1 (11717891_a_at) / Fold change /veh ECM1 (11717891_a_at) / RFU IL23R (11748794_a_at) / Fold change /veh IL23R (11748794_a_at) / RFU TNFAIP8L3 (11732012_x_at) / Fold change /veh TNFAIP8L3 (11732012_x_at) / RFU MBOAT4 (11741988_at) / Fold change /veh MBOAT4 (11741988_at) / RFU 11764193_at / Fold change /veh 11764193_at / RFU TMEM53 (11763286_at) / Fold change /veh TMEM53 (11763286_at) / RFU MAGEB2 (11727129_at) / Fold change /veh MAGEB2 (11727129_at) / RFU TMEM200A (11744735_a_at) / Fold change /veh TMEM200A (11744735_a_at) / RFU CCDC152 (11751479_a_at) / Fold change /veh CCDC152 (11751479_a_at) / RFU FAM211A (11726209_a_at) / Fold change /veh FAM211A (11726209_a_at) / RFU RGS16 (11746705_a_at) / Fold change /veh RGS16 (11746705_a_at) / RFU VCAN (11755009_s_at) / Fold change /veh VCAN (11755009_s_at) / RFU RHOB (11743442_s_at) / Fold change /veh RHOB (11743442_s_at) / RFU RGS16 (11720943_a_at) / Fold change /veh RGS16 (11720943_a_at) / RFU RGS16 (11720944_at) / Fold change /veh RGS16 (11720944_at) / RFU, VPS4B / Fold change vs veh, VPS4B / RFU, CREB1 / Fold change vs veh, CREB1 / RFU, DNAJC13 / Fold change vs veh, DNAJC13 / RFU, GNAQ / Fold change vs veh, GNAQ / RFU, CDK5R1 / Fold change vs veh, CDK5R1 / RFU, ZRANB3 / Fold change vs veh, ZRANB3 / RFU, CUL4A / Fold change vs veh, CUL4A / RFU, CCNY / Fold change vs veh, CCNY / RFU, UFL1 / Fold change vs veh, UFL1 / RFU, COG3 / Fold change vs veh, COG3 / RFU, DIAPH2 / Fold change vs veh, DIAPH2 / RFU, SKA2 / Fold change vs veh, SKA2 / RFU, AFF3 / Fold change vs veh, AFF3 / RFU, LMF1 / Fold change vs veh, LMF1 / RFU, IPO11 / Fold change vs veh, IPO11 / RFU, DFFB / Fold change vs veh, DFFB / RFU, FOXP1 / Fold change vs veh, FOXP1 / RFU, CARD8 / Fold change vs veh, CARD8 / RFU, STRN3 / Fold change vs veh, STRN3 / RFU, ADK / Fold change vs veh, ADK / RFU, RASSF2 / Fold change vs veh, RASSF2 / RFU, WIPF1 / Fold change vs veh, WIPF1 / RFU, LARP1B / Fold change vs veh, LARP1B / RFU, RASA1 / Fold change vs veh, RASA1 / RFU, RB1 / Fold change vs veh, RB1 / RFU, PPFIA1 / Fold change vs veh, PPFIA1 / RFU, MAT2A / Fold change vs veh, MAT2A / RFU, CCT5 / Fold change vs veh, CCT5 / RFU, WDR92 / Fold change vs veh, WDR92 / RFU, CUX1 / Fold change vs veh, CUX1 / RFU, TTC7A / Fold change vs veh, TTC7A / RFU, TMEM135 / Fold change vs veh, TMEM135 / RFU, DEPTOR / Fold change vs veh, DEPTOR / RFU, CPM / Fold change vs veh, CPM / RFU, DNAJB6 / Fold change vs veh, DNAJB6 / RFU, CACNA2D3 / Fold change vs veh, CACNA2D3 / RFU, DTX4 / Fold change vs veh, DTX4 / RFU, TFCP2 / Fold change vs veh, TFCP2 / RFU, GMCL1 /// GMCL1P1 / Fold change vs veh, GMCL1 /// GMCL1P1 / RFU, AEBP2 / Fold change vs veh, AEBP2 / RFU, SNHG1 /// SNORD22 /// SNORD25 /// SNORD26 /// SNORD27 /// SNORD28 /// SNORD29 /// SNORD31 / Fold change vs veh, SNHG1 /// SNORD22 /// SNORD25 /// SNORD26 /// SNORD27 /// SNORD28 /// SNORD29 /// SNORD31 / Fold change (Aza/veh), C12orf56 (ProbeSet 11735607_a_at) / Fold change (ACY-1035/veh), C12orf56 (ProbeSet 11735607_a_at) / Fold change (Aza/veh), FGFR1OP (ProbeSet 11751329_s_at) / Fold change (ACY-1035/veh), FGFR1OP (ProbeSet 11751329_s_at) / Fold change (Aza/veh), VPS36 (ProbeSet 11739960_a_at) / Fold change (ACY-1035/veh), VPS36 (ProbeSet 11739960_a_at) / RFU SYPL1 (11715823_x_at) / Fold change /veh SYPL1 (11715823_x_at) / RFU IGFBP7 (11715501_s_at) / Fold change /veh IGFBP7 (11715501_s_at) / RFU REEP3 (11722064_at) / Fold change /veh REEP3 (11722064_at) / RFU IGLL1 (11728026_x_at) / Fold change /veh IGLL1 (11728026_x_at): dose or concentration left out as unconfirmed
Settings: MV-4-11 cells, 48 hours

## Nc1ncn([C@@H]2O[C@H](CO)[C@@H](O)[C@H]2O)c(=O)n1 [azacitidine]
  Fold change /veh PRRT2 (11749266_a_at): 0.89
